Experimental data taken from US10053423B2, “Radioiodinated compounds” (NUtech Ventures, priority 2014, dated 2018).

Tests used:
[1] = Thermal stability to iodine loss during the deprotection reaction; format: physicochemical; conditions: during the deprotection reaction (6M HCl, 100° C., 10 minutes), compared to MIBG
Experimental: The residue in the reactor vial was dissolved in 200 μl of 6M HCl, and heated at 100° C. for 10 minutes. The solution was allowed to cool for one minute and neutralized with 120 μl of 10M NaOH. A reverse phase (C18) sep pak was rinsed with ethanol (10 mL) and water (10 mL) and blown dry. The neutralized solution ([…]) was passed through the sep pak and the sep pak was rinsed with 2 mL of water (to elute any remaining salts) and blown dry. Ethanol (0.8 mL) was passed through the sep pak to elute the radiolabeled benzylguanidine derivative. Ethanol was removed using a stream of nitrogen before the material was purified by HPLC.
124I-2,4-difluoro-3-iodobenzylguanidine was prepared in 80±6% radiochemical yield (n=4) at the 1-2 mCi scale using the procedure outlined in Example 26. Following isolation, the product was >99% chemically and radiochemically pure, as assayed by HPLC.

[2] = Imaging (PET/CT) and biodistribution study of 124I-MIBG prepared using two methods; format: in vivo; conditions: male Sprague-Dawley rats, single intravenous dose, PET/CT scans at 1, 4, and 24 hours post injection; diaryliodonium salt precursor preparation vs conventional method (stannylated resin precursor)
Experimental: To determine whether the method of preparation of MIBG affected the biodistribution of the compound, high specific activity ^124I-MIBG was prepared using the diaryliodonium salt method (Example 27) and the conventional stannylated resin precursor; these compounds were imaged in rodent models.
Eight male Sprague-Dawley rats were used for the study. Upon arrival at the laboratory, each animal was inspected, uniquely identified with the animal number written on their tails, and weighed. The animals were judged to be in good health and were immediately placed in acclimation. Animals were between 6-14 weeks of age and weighed 440.5±36.4 g.
After a single intravenous dose of ^124I-MIBG prepared by diaryliodonium salt precursor, or ^124I-MIBG prepared with conventional method, Sprague-Dawley rats were given PET/CT scans at 1, 4, and 24 hours post injection of radiotracer. Biodistribution analysis was performed to quantify the amount of uptake in each animal's heart, liver, kidneys, thyroid, quadriceps muscle, and whole body as a function of time. Data is presented in units of μCi, μCi/mm3, % ID, and % ID/g. The radiochemical purity of all compounds as assessed by HPLC was >97% within an hour of administration.

Compound	thermal stability to iodine loss [1]	biodistribution (uptake in heart, liver, kidneys, thyroid, quadriceps muscle, and whole body as a function of time) [2]
N=C(N)NCc1ccc(F)c([124I])c1F [124I-2,4-difluoro-3-iodobenzylguanidine, ^124I-2,4-difluoro-3-iodobenzylguanidine]	greater thermal stability to iodine loss	–
NC(N)=NCc1cccc([124I])c1 [^124I-MIBG]	–	no noted qualitative or quantitative difference
